Measured values as given in US11632953B2, “Method for controlling hematophagous or sap-feeding arthropods” (Board of Supervisors of Louisiana State University and …, priority 2016, dated 2023).

Tests used:
[1] = system: honey bees (Apis mellifera); assay: acute topical toxicity in adult honey bees; assay type: in vivo; conditions: 48 h, VU041 1 mg/bee (~10 μg/mg), bifenthrin 0.1 μg/bee
Description: Frames of late-stage honeybee (A. mellifera) pupae were taken from four colonies at The Ohio State University Honey Bee Lab in Wooster, Ohio, and maintained in a dark humid incubator at 34° C. (Darwin Chambers Co., St. Louis, Mo., model H024) until adult bees emerged. New adults were brushed from frames daily, placed in wooden screen cages (21×14×12 cm), and provided with 1:1 (w/w) sucrose in water.
Acute toxicity experiments in adult bees were performed as follows: Twenty-four hours after emergence, adult honey bees in cages were anaesthetized with carbon dioxide, divided into groups of approximately 20 bees each, and placed in plastic-coated paper cups (177 cm^3; UNIQ Paper Yogurt Cup, Frozen Dessert Supplies, Gilbert, Ariz.) covered with cotton cheesecloth. […] As a positive control, some bees were treated with 3 μl of bifenthrin (0.1 μg/μl). Negative control bees were treated with 3 μl of solvent. Applications were made using a 20 μl micropipette (Fisherbrand Finnpipette F2, Fisher Scientific, Pittsburgh, Pa.) with a disposable plastic tip. […] Toxicity to honey bees was recorded at 48 h, rather than the 24 h used for mosquitoes, to allow for the possibility of delayed toxicity due to the larger body size of the bee. Bees showing no movement 48 h after treatment were scored as dead.

AnKir1 [2] = biological target: T1, AnKir1 (Anopheles gambiae, UniProt A0A075M2J8); assay: thallium (Tl+) flux assay; assay type: cell-based; conditions: SAR libraries; read-out: AnKir1 IC50
Description: The thallium flux assay is an in vitro method of measuring conductance through a potassium ion channel. Potassium channels are also permeable to thallium ions. The modulation of a K^+ channel will thus increase or decrease thallium ion flow through the channel and thus, alter the observed fluorescence of a thallium-specific indicator dye.
After 1 hr incubation at room temperature, the dye-loading solution was washed from the plates and replaced with 20 μL/well of assay buffer. The plates were transferred to a Hamamatsu Functional Drug Screening System 6000 (FDSS6000; Hamamatsu, Tokyo, Japan), where 20 μL/well of each of the test compounds in assay buffer was added and allowed to incubate with the cells for 20 min. After incubation, a baseline recording was collected at 1 Hz for 10 s (excitation 470±20 nm, emission 540±30 nm); a thallium stimulus buffer was then added (10 μL/well), and data were then collected for an additional 4 min. […] To ensure the small-molecule vehicle DMSO had no direct effect on AnKir1-dependent Tl^+ flux, the assay's tolerance to different doses of DMSO was evaluated. The robustness and reproducibility of the assay was determined by comparing Tl^+ flux through tetracycline-induced and tetracycline-free cells. The Z′ value was calculated as:
Z′=1−(3SDp+3SDn)/|meanp+meann| where SD is standard deviation, and p and n are control and uninduced flux values, respectively. To compare the effect of DMSO on AnKir1-mediated Tl^+ flux, a one-way ANOVA was performed with a Tukey's multiple comparison test. Prism software (GraphPad Software) was used to generate CRC from Tl^+ flux. Half-inhibition concentration (IC50) values were calculated from fits using a four parameter logistic equation.
Test compounds were transferred to daughter, 384-well polypropylene plates (Greiner Bio-One, Monroe, N.C.) with an Echo555 liquid handler (Labcyte, Sunnyvale, Calif.), and then diluted into assay buffer to generate a 2× stock in 0.6% DMSO (0.3% final). […] Concentration-response curves (CRCs) were generated by screening compounds at 3-fold dilution series (1 nM-30 μM).
Tl^+ flux data were analyzed using Excel (Microsoft Corp, Redmond, Wash.) with XLfit add-in (IDBS, Guildford, Surrey, UK), OriginPro (Origin Lab, Northampton, Mass.), and GraphPad Prism (GraphPad Software, San Diego, Calif., USA) software. Raw data were opened in Excel and each data point in a given trace was divided by the first data point from that trace (static ratio) followed by subtraction of data points from control traces generated with vehicle controls. The slope of the fluorescence increase beginning 5 s after Tl^+ addition and ending 15 s after Tl^+ addition was calculated.
To perform Tl+ flux assays, stably transfected T-Rex-HEK-293 cells expressing AnKir1 channels were cultured overnight in 384-well plates (20,000 cells/20 μL/well), black-walled, clear-bottomed BD Pure Coat amine-coated plates (BD, Bedford, Mass.) with a plating media containing DMEM, 10% dialyzed FBS and 1 μg/mL tetracycline. […] Following 1 hr incubation at room temperature, the dye-loading solution was washed from the plates and replaced with 20 μL/well of assay buffer.

hKir2.1 = hKir2.1 (Homo sapiens (Human), UniProt P63252); assay: thallium (Tl+) flux assay; assay type: cell-based; conditions: SAR libraries; read-out: hKir2.1 IC50
[3] = system: isolated tick salivary gland; assay: fluid secretion (salivation) in the isolated tick salivary gland, modified Ramsay assay; design: species or system Amblyomma americanum; conditions: for Effect on Salivation at 10 minutes (reduction) / reduction of salivary output / saliva secretion compared to control: isolated tick salivary gland
Drosophila melanogaster = assay: whole plant or invertebrate; conditions: 100 μM
Description: A capillary feeding assay (CAFE) was used to quantify the volume of sucrose solution consumed over a period of time; it was performed essentially as described in W. W. Ja, G. B. Carvalho, E. M. Mak, N. N. de la Rosa, A. Y. Fang, J. C. Liong, T. Brummel, S. Benzer, Prandiology of Drosophila and the CAFE assay. Proceedings of the National Academy of Sciences of the United States of America 104, 8253-8256 (2007); published online EpubMay 15 (10.1073/pnas.0702726104). […] One adult fly was placed into a 2 mL glass vial with a screw lid that was pierced with a glass microcapillary tube having a truncated 200-0 pipette tip. The microcapillary tubes contained 5% (wt/vol) sucrose solution with a 5 μl mineral oil overlay to minimize evaporation. […] Concentrations of 100 μM dopamine and 100 μM fluphenazine were used to determine the influence of those agents on fly feeding. […] All dead flies were excluded from all time points of the study regardless of the time of death. Mean (n>25) values are shown in all figure panels, depicting total consumption.
Times spent feeding in Kir1 and GFP genetic knockdown studies were compared to control values for each day using one-way ANOVA with a Dunns multiple comparisons post-test. Statistical significance for all studies was P<0.05.

An. gambiae [4] = conditions: cited from earlier work; for Resistance Ratio (Akron compared to G3 strain): ED50 Akron/ED50 G3
An. gambiae [5] = assay: topical toxicity bioassay in adult female An. gambiae; assay type: in vivo, Anopheles gambiae; conditions: 24 h
Description: Topical toxicity bioassays were performed on non-blood-fed adult female mosquitoes. The mosquitoes were chilled on ice for 1-3 minutes, during which 200 nL of compound (dissolved in 95% ethanol) was applied onto the abdomen of each insect with a handheld Hamilton® micro-applicator. […] […] The three resulting ED50 values were averaged. An ethanol-only treatment was included in each experiment as a negative control. Treated mosquitoes were transferred to small cages with access to 10% sucrose and held under rearing conditions for 24 h. Mortality was recorded at 24 h.

AnKir1 [6] = biological target: T1, AnKir1; assay: whole-cell patch clamp electrophysiology; assay type: cell-based; conditions: whole-cell patch clamp, HEK-293T cells
Description: Patch electrodes were pulled from silanized 1.5 mm outer diameter borosilicate microhematocrit tubes using a P-1000 Flaming/Brown micropipette puller (Sutter Instrument, Novato Calif., USA). Electrode resistance ranged from 2-4 MΩ. Whole-cell currents were recorded under voltage-clamp conditions using an Axopatch 200B amplifier (Molecular Devices, Sunnyvale, Calif.). Electrical connections to the amplifier used Ag/AgCl wires and 3 M KCl/agar bridges. Electrophysiological data were collected at 5 kHz and filtered at 1 kHz. Data acquisition and analysis were performed using pClamp 9.2 software (Axon Instruments).
Transiently transfected HEK-293T cells expressing AnKir1 were voltage-clamped in the whole-cell configuration of the patch clamp technique. The extracellular bath solution contained (in mM): 135 NaCl, 5 KCl, 2 CaCl2), 1 MgCl2, 5 glucose, 10 HEPES free acid, pH 7.4, 290 mOsm/kg H2O. The pipette solution contained (in mM): 135 KCl, 2 MgCl2, 1 EGTA, 10 HEPES free acid, 2 Na2ATP (Roche, Indianapolis, Ind.), pH 7.3, 275 mOsm. Cells were voltage clamped at −75 mV, stepped to −120 mV for 200 msec, and then ramped to 120 mV at a rate of 2.4 mV/msec. Concentration-response curves (CRCs) were constructed by measuring the effects of increasing doses of inhibitors on AnKir1 currents at −120 mV. All recordings were made at room temperature (20-23° C.).

Aphis gossypii = assay: aphid feeding on treated cotton leaves, electrophenegraph technique; assay type: in vivo; conditions: barium chloride at 300 micromolar
Description: FIGS. 14(A) and (B) depict measurements of aphid (Aphis gossypi) feeding on cotton leaves, as measured through the electrophenegraph technique; on control leaves and on leaves treated with the Kir inhibitor barium, respectively.
In aphids, a specific Kir channel blocker (barium chloride at 300 micromolar) was coated onto leaf tissue, and the feeding behavior of the adult aphid was analyzed through the classical electrophenegraph technique.

[7] = system: isolated tick salivary gland; assay: ion secretion in saliva of the isolated tick salivary gland; design: species or system Amblyomma americanum
Aedes aegypti mosquitoes = assay: mosquito blood feeding with compound exposure; assay type: in vivo; conditions: compound added to blood
Description: Tolbutamide and glybenclamide are inhibitors of ATP-gated Kir channels.

Chain of hKir2.1 (P63252 whole entry): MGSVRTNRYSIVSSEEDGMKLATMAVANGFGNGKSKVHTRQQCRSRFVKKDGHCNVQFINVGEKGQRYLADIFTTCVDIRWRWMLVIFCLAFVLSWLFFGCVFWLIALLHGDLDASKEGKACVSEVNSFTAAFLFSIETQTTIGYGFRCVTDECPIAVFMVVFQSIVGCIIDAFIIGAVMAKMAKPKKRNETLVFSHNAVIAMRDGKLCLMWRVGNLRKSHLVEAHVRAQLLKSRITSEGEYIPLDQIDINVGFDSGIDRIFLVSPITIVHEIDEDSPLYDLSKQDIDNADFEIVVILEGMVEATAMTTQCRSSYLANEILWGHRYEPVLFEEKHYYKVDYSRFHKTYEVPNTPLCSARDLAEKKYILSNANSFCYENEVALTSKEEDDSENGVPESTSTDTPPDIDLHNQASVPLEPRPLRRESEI
T1 sequence (A0A075M2J8 1-555): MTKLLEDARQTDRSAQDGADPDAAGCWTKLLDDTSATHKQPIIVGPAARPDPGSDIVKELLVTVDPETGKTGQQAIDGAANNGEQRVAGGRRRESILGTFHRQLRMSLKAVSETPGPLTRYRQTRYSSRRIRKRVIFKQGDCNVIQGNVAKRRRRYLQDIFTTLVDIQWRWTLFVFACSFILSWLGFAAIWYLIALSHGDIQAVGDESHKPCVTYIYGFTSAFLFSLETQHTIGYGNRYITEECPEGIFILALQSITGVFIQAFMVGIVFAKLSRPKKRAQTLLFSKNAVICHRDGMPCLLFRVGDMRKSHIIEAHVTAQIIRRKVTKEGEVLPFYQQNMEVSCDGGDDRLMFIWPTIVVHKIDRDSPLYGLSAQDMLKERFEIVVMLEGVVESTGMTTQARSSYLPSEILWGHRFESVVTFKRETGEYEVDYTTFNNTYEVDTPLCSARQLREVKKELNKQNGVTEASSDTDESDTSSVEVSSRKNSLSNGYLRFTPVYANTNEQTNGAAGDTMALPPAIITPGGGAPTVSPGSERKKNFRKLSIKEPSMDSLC

Cc1c(COC(=O)[C@@H]2[C@H](/C=C(\Cl)C(F)(F)F)C2(C)C)cccc1-c1ccccc1 (racemic) [bifenthrin, reference compound]
mortality of adult honey bees [1]: 100%

O=C1CCCc2c1ccn2CC(=O)N1CCCc2ccccc21 [Compound 4]
IC50 (AnKir1 [2]): 12.1 µM | IC50 (hKir2.1): > 30 µM

O=C(CN1CCCc2ccccc21)N1CCCc2ccccc21 [Compound 6]
IC50 (AnKir1 [2]): 8 µM

O=C(Cn1nc(C(F)(F)F)c2c1CCCC2)N1CCCC2CCCCC21 (stereo not shown) [Compound 9]
IC50 (AnKir1 [2]): 6.7 µM | IC50 (hKir2.1): > 30 µM

O=C(Cn1nc(C(F)(F)F)c2c1CCCC2)N1CCCC(c2ccccc2)C1 (stereo not shown) [Compound 12]
IC50 (AnKir1 [2]): 5.6 µM | IC50 (hKir2.1): > 30 µM

CC1CC(C)CN(C(=O)Cn2nc(C(F)(F)F)c3c2CCCC3)C1 (stereo not shown) [Compound 13]
IC50 (AnKir1 [2]): 4.5 µM | IC50 (hKir2.1): > 30 µM

O=C(Cn1nc(C(F)(F)F)c2c1CCCC2)N1CCOc2ccccc21 [Compound 14]
IC50 (AnKir1 [2]): 4.6 µM

CC(NC(=S)Nc1ccncc1)C(C)(C)C (stereo not shown) [DRS-1]
Effect on Salivation at 10 minutes (reduction) [3]: Reduced ~80%

CC(NC(=NC#N)Nc1cccnc1)C(C)(C)C (stereo not shown) [DRS-3]
Effect on Salivation at 10 minutes (reduction) [3]: Reduced ~100%

CC(C)(C)CNC(=C[N+](=O)[O-])Nc1ccncc1 [DRS-4]
Effect on Salivation at 10 minutes (reduction) [3]: Reduced ~83%

NCCc1ccc(O)c(O)c1 [Dopamine, reference compound]
increase in sucrose consumption vs control (Drosophila melanogaster; 1 day PE): 1.7 fold | increase in sucrose consumption vs control (Drosophila melanogaster; 2 days PE): 1.3 fold | increase in sucrose consumption vs control (Drosophila melanogaster; 3 days PE): 1.2 fold | increase in sucrose consumption vs control (Drosophila melanogaster; 4 days PE): 1.4 fold

CC1(C)C(C=C(Cl)Cl)C1C(=O)OCc1cccc(Oc2ccccc2)c1 (stereo not shown) [Permethrin]
Resistance Ratio (Akron compared to G3 strain) (An. gambiae [4]): 33 fold | ED50, Akron Strain (An. gambiae [4]; topical, Akron strain, from reference 21): 0.001 µg/mg | ED50, G3 Strain (An. gambiae [4]; topical, G3 strain, from reference 21): 3e-07 µg/mg

O=C(Cn1ncc2c1CCOC2)N1CCCc2ccccc21 [VU730]
topical toxicity (An. gambiae [5]; adult females): ED50 similar to that for VU041 | ED50 (95% confidence limits), G3 Strain (An. gambiae [5]; topical, G3 strain, synergists 500 ng/insect four hours prior): 2.4 (2.1-2.9) A μg/mg | IC50 (AnKir1 [2]): 2.4 µM | IC50 (hKir2.1): > 30 µM | IC50 (AnKir1 [6]): 0.717 µM

[Ba+2].[Cl-].[Cl-] [barium chloride]
feeding phases (egestion, salivation, ingestion) (Aphis gossypii): inability of treated aphids to salivate | transepithelial fluid secretion ([3]; control 270 nl/5 min, preliminary): 141 nl/5 min | reduction of salivary output / saliva secretion compared to control [3]: approximately 60% | K+ and Na+ ion secretion rates in salivary droplets [7]: significantly reduced

CNCCC(Oc1ccc(C(F)(F)F)cc1)c1ccccc1 (stereo not shown) [fluoxetine]
reduction of salivary output / saliva secretion compared to control [3]: 98%

O=C(NCCO[N+](=O)[O-])c1cccnc1 [nicorandil]
cations (K+ and Na+) concentrations excreted from the salivary glands [7]: significant reduction

CNC(=O)Oc1ccccc1OC(C)C [propoxur]
Resistance Ratio (Akron compared to G3 strain) (An. gambiae [4]): 101 fold

CCCCNC(=O)NS(=O)(=O)c1ccc(C)cc1 [tolbutamide]
reduction of total volume of blood consumed (Aedes aegypti mosquitoes): 99%
